Experimental findings from patent US20130059929A1, “MICROBIOLOGICALLY STABLE, EASILY APPLICABLE PREPARATIONS” (Beiersdorf AG, priority 2010, published 2013) are described below.

In this assay the test system is Staphylococcus epidermidis. Briefly: biofilm assay (biofilm inhibition and biofilm dissolution, color reaction on microtiter plate scale, FIG. 1). It counts as cell-based. The note with it: based on the positive control (PC1); for biofilm inhibition (biofilm-inhibiting effectiveness): timepoint 0 h; for biofilm-dissolving effect: timepoint 24 h. The protocol:
In the course of the biofilm assay, the biofilm inhibition at timepoint 0 h and also the biofilm-dissolving effect at timepoint 24 h is investigated using a color reaction on a microtiter plate scale.
The test shown in FIG. 1 was carried out with Staphylococcus epidermidis, a germ which causes little harm for people with a normal immunological defense. Staphylococcus epidermidis (syn. Staphylococcus albus, Micrococcus epidermidis, Staphylococcus saprophyticus) is a Gram-positive, plasmacoagulase-negative, saprophagic bacterium which colonizes the human skin and mucosa. Furthermore, it can be found on foods and also colonizes on polymeric surfaces (e.g. packagings). However, in a hospital, in the case of immunocompromised people, it can, in cases of lack of cleanliness, be a cause of serious diseases.

Regarding `CCOC(=O)c1ccc(O)cc1` [ethylparaben], the “effectiveness in the biofilm assay (inhibition / dissolution not distinguished)” value is “Neither ethylparaben nor methylparaben exhibited effectiveness”.
For the compound `Cn1sccc1=O` [methylisothiazolinone, 2-methyl-2H-isothiazol-3-one], the “biofilm inhibition (biofilm-inhibiting effectiveness)” value was “very good biofilm-inhibiting effectiveness” and the biofilm-dissolving effect result was “slight biofilm dissolution”.
For `CCCCCCCCCCCC(=O)N[C@@H](CCCN=C(N)N)C(=O)OCC.Cl` [lauroyl ethyl arginate, ethyl lauroyl arginate HCl], in that order: “very good biofilm-inhibiting effectiveness” and “very good biofilm-dissolving effect”.
As to `CC(C)(C)CC(C)(C)c1ccc(OCCOCC[N+](C)(C)Cc2ccccc2)cc1` [benzethonium chloride, benzyldimethyl (4-{2-[4-(1,1,3,3-tetramethylbutyl)phenoxy]ethoxy}ethyl)ammonium chloride], the biofilm-dissolving effect result is “very good biofilm-dissolving effect”.
`Cc1cc(CC(C)CC(C)(C)C)n(O)c(=O)c1` (stereo not drawn) [piroctone olamine, 1-hydroxy-4-methyl-6-(2,4,4-trimethylpentyl)-2(1H)-pyridone]: the “biofilm inhibition (biofilm-inhibiting effectiveness)” value is reported as “very good biofilm-inhibiting effectiveness” and the biofilm-dissolving effect result is listed as “slight biofilm dissolution”.
Take `COC(=O)c1ccc(O)cc1` [methylparaben]: the “effectiveness in the biofilm assay (inhibition / dissolution not distinguished)” value is “Neither ethylparaben nor methylparaben exhibited effectiveness”.
